Measured values as given in US12280026B2, “Use of repirinast in the prophylaxis or treatment of renal fibrosis or kidney disease” (ALGERNON PHARMACEUTICALS INC., priority 2018, dated 2025).
Entries after “also recorded” stand apart in the source; their conditions may differ. Marks after values point to notes of the source that are not given here.

Legend:
Assay type in all cases: in vivo
[1] = Example 1: UUO mice, mean body weight change following surgery; conditions: Example 1, mostly post-surgical day 14, male C57BL/6 mice, PO QD days 1-14, doses of Table 1
Protocol: (§1) Male 9-12 week old C57BL/6 mice of 23-25 grams body weight were used. All mice were acclimated for a minimum of 5 days prior to the start of the study and housed individually in microisolators throughout the study in a 12:12 light-dark cycle on a standard maintenance mouse chow diet (Harlan Teklad 2018) with food and water given ad libitum. Prior to surgery, all mice were weighed for baseline body weight.
(§2) The UUO surgical intervention was performed according to previously described methods known in the art (Le Meur Y et al., Macrophage accumulation at a site of renal inflammation is dependent on the M-CSF/c-fms pathway, J Leukocyte Biol., 72:530-537; 2002).
(§3) All mice were first anesthetized by intraperitoneal injection with a rodent cocktail (ketamine 10 mg/mL and Xyaline 1 mg/mL) in normal saline (10 μL/g body weight). Pedal reflex and movement of the vibrissae were used to determine the state of unconsciousness. A state of unconsciousness was confirmed after a period of about 5 minutes in all animals. All mice were then shaved on the left side of the abdomen. The shaved area was first swabbed with iodine and then swabbed with alcohol. A vertical incision was made through the skin with a #22 scalpel and the skin was then retracted. A further incision of about 2.5 cm was then made through the peritoneum avoiding any major blood vessels. The peritoneum was then retracted and the left kidney was exposed.
(§4) The left kidney was then brought to the surface by hooking the ureter directly beneath the kidney with sterile forceps and gently manipulating the kidney upward. The ureter was ligated at two points directly below the kidney with 5-0 surgical silk with excess suture cut away and discarded post-ligation. The kidney was then gently placed back to its correct anatomical position and the abdomen was lavaged with 1 mL sterile saline to replenish fluid loss. The peritoneum and then skin were sutured with 5-0 Mersilene, and the incision site was gently wiped with iodine. All mice were then placed individually in clean cages that were set on top of a thermal blanket until recovery at about 30-60 minutes later. In some examples, sham surgery was performed as a control by following all steps of the UUO surgical intervention procedure except ligation.
(§5) Following surgery, the mice were divided into 14 individual study groups of 8 mice each and, following post-surgical recovery, administered a once-daily oral treatment for 14 days. The mice in 12 of the 14 study groups (hereafter known as “treatment groups”) had all received the UUO surgical ligation and were treated individually with a distinct pharmacologic compound as set out in Table 1. The mice in 2 of the 14 study groups were treated individually with a pharmaceutically acceptable vehicle with no active ingredient. The pharmaceutically acceptable vehicle in all groups was 0.5% carboxymethyl cellulose (CMC). All mice were sacrificed with CO2 on post-surgical day 15.
(§6) The dose selected for the animal studies was determined by taking the maximum known human daily dose, dividing by the average weight of an adult (˜60-70 kg) to get a human mg/kg dose. […]
Body weight: The body weights were measured on days 1, 2, 5, 8, 10 and 14 using a laboratory balance.
Body weights were measured on post-surgical days 1, 2, 5, 8, 10 and 14 as previously described. The mean body weight change of each study group was calculated using the body weight average of all mice in each study group.

[2] = tested on: C57BL/6 mice with UUO surgical ligation; test: Example 1: UUO mice, renal function evaluation (plasma BUN, creatinine); conditions: for BUN in comparison to control groups, in words / Reduction in levels of BUN compared to vehicle, significance in words: Example 1; for BUN in comparison to control groups, in words: UUO, male C57BL/6 mice, PO QD days 1-14, doses of Table 1; for Reduction in BUN compared to vehicle, in words, post-test not stated: Example 1 text and conclusions, Bemithyl 200, Repirinast 30, Bromantane 20, Telmisartan 5 mg/kg PO QD; for Reduction in levels of BUN compared to vehicle, significance in words: p<0.05, Tamhane post-test, Repirinast 30, Bemithyl 200, Bromantane 20 mg/kg PO QD
Protocol: as §1, §2, §3, §4, §5
(§7) The dose selected for the animal studies was determined by taking the maximum known human daily dose, dividing by the average weight of an adult (˜60-70 kg) to get a human mg/kg dose. Then that number was multiplied by 12 to convert to a mouse dose based on conventional dosing tables. See Nair and Jacob, J Basic Clin Pharm March 2016-May 2016, 7(2):27-31.
(§8) Serum collection: A blood sample was then collected from all mice and plasma analyzed for urea nitrogen and creatinine. Plasma was stored at −80° C. for possible future analysis.
(§9) Renal Function Evaluation: Renal function and disease progression was evaluated by BUN (blood urea nitrogen) as previously described. The BUN of each study group consisted of the BUN average of all mice in each study group.

[3] = tested on: C57BL/6 mice with UUO surgical ligation; test: Example 1: UUO mice, renal fibrosis evaluation (Sirius Red histology score); conditions: Bemithyl 200, Emoxypine 160, Suplatast Tosylate 60, Udenafil 40, Telmisartan 5 mg/kg PO QD
Protocol: as §1, §2, §3, §4, §5, §6
Histopathology: Formalin-fixed kidney cross-section samples were subjected histopathological scoring with Sirius Red staining, and imaged at a magnification of ×20, using standard techniques. All three sections were stained and evaluated. […] The presence of interstitial damage and severity score was assessed according to the following criteria: 0=normal, 1=light, 2=moderate, 3=severe. […]

[4] = tested on: C57BL/6 mice with UUO surgical ligation; test: Example 2: UUO mice, renal function evaluation (plasma BUN, creatinine); conditions: for Level of BUN compared to vehicle or other agents, in words: mg/kg PO QD: Telmisartan 3, Bemithyl 200, Repirinast 30, Telmisartan+Bemithyl 3+200, Telmisartan+Repirinast 3+30, Cenicriviroc 40, Bromantane 40; for BUN / Creatinine: plasma at sacrifice day 15, group mean, UUO, female C57BL/6 mice, PO QD days 1-14
Protocol: In this example, healthy young female C57BL/6 mice were used for the study. At the commencement of the study, mice were between 9-12 weeks of age, weighing 23-25 g. All the mice were obtained from Charles River Laboratories.
The mice were maintained in a controlled environment with a temp 70-72° F., humidity 30-70%, with a photo cycle of 12 hours of light and 12 hours of dark. They were provided with Harlan Teklad 2018 standard maintenance mouse chow diet and drinking water ad libitium.
After five days of acclimatization, the mice were grouped according to their body weight. There were ten groups of ten mice each. Nine groups of ten mice each underwent UUO as described above and the other group of ten mice underwent a sham procedure to serve as a no-surgery control.
Following surgery, the mice were divided into 10 individual study groups of 10 mice each and, following post-surgical recovery, administered a once-daily oral treatment for 14 days. The mice in 8 of the 10 study groups had all received the UUO surgical ligation and were treated individually with a distinct pharmacologic compound as set out in Table 6. The mice in 2 of the 10 study groups were treated individually with a pharmaceutically acceptable vehicle with no active ingredient. The pharmaceutically acceptable vehicle in all groups was 0.5% carboxymethyl cellulose (CMC). All mice were sacrificed with CO2 on post-surgical day 15.
as §7, with “That” for “Then that”
as §8
The data are presented as the mean obtained from Microsoft Excel or GraphPad Prism version 5.00 for Windows (GraphPad Software, San Diego California USA). Data were analyzed using two-way ANOVA using Bonferroni and Tamhane post-tests. Differences between groups were considered significant at p<0.05.
as §9

[5] = * significant vs vehicle Bonferroni, # Tamhane (p<0.05), mg/kg: Telmisartan 3, Bemithyl 200, Repirinast 30, Telmisartan+Bemithyl 3+200, Telmisartan+Repirinast 3+30, Cenicriviroc 40, Bromantane 40
[6] = mg/kg: Telmisartan 3, Bemithyl 200, Repirinast 30, Telmisartan+Bemithyl 3+200, Telmisartan+Repirinast 3+30, Cenicriviroc 40, Bromantane 40

CCSc1nc2ccccc2[nH]1 [Bemithyl, 2-Ethylsulfanyl-1H-benzoimidazole]
Mean body weight change, comparison with control groups, in words [1]: even greater than that of the sham surgery control group; also recorded: appeared to reverse the negative effects of UUO on body weight gain | BUN in comparison to control groups, in words [2]: less renal dysfunction and disease progression than the positive control treatment; also recorded: decreased in comparison to the sham surgery control group; also recorded: most improved renal function of all | Reduction in BUN compared to vehicle, in words, post-test not stated [2]: reduction in BUN compared to vehicle | Reduction in levels of BUN compared to vehicle, significance in words [2]: significant reductions in the levels of BUN | Kidney fibrosis / Histology Score, significance and comparison in words [3]: decreased in comparison to the positive control treatment group; also recorded: significant reductions in kidney fibrosis; also recorded: significant improvement in kidney fibrosis | Level of BUN compared to vehicle or other agents, in words ([4]; Example 2): significant reductions in the level of BUN compared to vehicle; also recorded: reduction in BUN compared to vehicle | BUN [4, 5]: 19.4* mg/dL | Creatinine [4, 6]: 0.20 mg/dL

Brc1ccc(NC2C3CC4CC(C3)CC2C4)cc1 (stereo not drawn) [Bromantane, N-(4-Bromophenyl)adamantan-2-amine]
Mean body weight change, comparison with control groups, in words [1]: comparable to that of the surgery vehicle control group | BUN in comparison to control groups, in words [2]: less renal dysfunction and disease progression than the positive control treatment; also recorded: decreased in comparison to the sham surgery control group | Reduction in BUN compared to vehicle, in words, post-test not stated [2]: significant reductions in BUN compared to vehicle | Reduction in levels of BUN compared to vehicle, significance in words [2]: significant reductions in the levels of BUN | Level of BUN compared to vehicle or other agents, in words ([4]; Example 2): significant reductions in the level of BUN compared to vehicle; also recorded: most effective compound tested; also recorded: superior to Telmisartan; also recorded: reduction in BUN compared to vehicle; also recorded: highest reductions in both fibrosis and BUN levels | BUN [4, 5]: 17.3** mg/dL | Creatinine [4, 6]: 0.20 mg/dL

Cc1ccc2c([nH]c(=O)c3c(=O)cc(C(=O)OCCC(C)C)oc32)c1C [Repirinast, 3-methylbutyl 7,8-dimethyl-4,5-dioxo-5,6-dihydro-4H-pyrano[3,2-c]quinoline-2-carboxylate]
Mean body weight change, comparison with control groups, in words [1]: greater decrease in body weight | BUN in comparison to control groups, in words [2]: less renal dysfunction and disease progression than the positive control treatment; also recorded: decreased in comparison to the sham surgery control group | Reduction in BUN compared to vehicle, in words, post-test not stated [2]: significant reductions in BUN compared to vehicle | Reduction in levels of BUN compared to vehicle, significance in words [2]: significant reductions in the levels of BUN | Level of BUN compared to vehicle, in words ([4]; Example 2, Repirinast 90 mg/kg PO QD): significant reductions in the level of BUN compared to vehicle; also recorded: reduction in BUN compared to vehicle | Level of BUN compared to vehicle or other agents, in words ([4]; Example 2): significant reductions in the level of BUN compared to vehicle | BUN [4, 5]: 18.5*# mg/dL | BUN ([4]; Repirinast 90 mg/kg): 17.6*# mg/dL | Creatinine ([4]; Repirinast 90 mg/kg): 0.20 mg/dL | Creatinine [4, 6]: 0.20 mg/dL

CCCc1nc2c(C)cc(-c3nc4ccccc4n3C)cc2n1Cc1ccc(-c2ccccc2C(=O)O)cc1 [Telmisartan, 2-(4-{[4-Methyl-6-(1-methyl-1H-1,3-benzodiazol-2-yl)-2-propyl-1H-1,3-benzodiazol-1-yl]methyl}phenyl)benzoic acid]
Reduction in BUN compared to vehicle, in words, post-test not stated [2]: did not show a significant reduction; also recorded: the former was not statistically significant | Kidney fibrosis / Histology Score, significance and comparison in words [3]: significant reduction; also recorded: reduction in BUN levels and fibrosis | Level of BUN compared to vehicle or other agents, in words ([4]; Example 2): did not reduce levels of BUN; also recorded: did not show significant reductions | BUN [4, 5]: 23.5 mg/dL | Creatinine [4, 6]: 0.20 mg/dL
